Source: patent publication US12422427B2, “Compounds for treatment of diseases and methods of screening therefor” (Max-Planck-Gesellschaft zur Förderung der Wissenschaften …, priority 2018, dated 2025)

Tests used:
[1] = test system: EWSR1, TIAL1, PABPC1, G3BP1; assay: Panel of HeLa lines expressing GFP-labelled stress granule proteins, arsenate stress; assay type: cell-based; conditions: 1 mM arsenate, 10 μM compound
Protocol: It was anticipated that a useful therapeutic would prevent all PLD-containing stress granule proteins from localising to stress granules. The inventors used 1 mM arsenate to stress a panel of HeLa cell lines expressing GFP fusions of stress granule proteins (EWSR1, TIAL1, PABPC1, G3BP1) with either no treatment or 10 μM lipoic acid or lipoamide.
Compound effects were assessed under a variety of conditions in HeLa or iPS cells expressing wild-type or P525L FUS GFP by live cell imaging. Different combinations of 1 h pre-treatment compound or pre-stress with arsenate followed by 1 h treatment with compound and/or stress with arsenate. Unless otherwise indicated, cells were pre-treated for 1 h using 10 μM compound from 10 mM stock in DMSO (or an equal volume of DMSO control) then stressed for 1 h with 1 mM potassium arsenate still in the presence of compound. GFP fluorescence was imaged by widefield epifluorescence using an inverted Olympus IX71 microscope with an Olympus 100× NA 1.4 Plan Apo oil immersion objective and a CoolSNAP HQ CCD camera (Photometrics), using a DeltaVision climate control unit (37° C., 5% CO2) (Applied Precision). The kinetics of pre-stress followed by treatment was analysed from images captured at 2 min intervals for 100 min, for single time points images were captured after 1 h unless otherwise indicated.

[2] = test system: HeLa cells expressing FUS GFP; assay: Stress granule formation in HeLa FUS GFP cells under different stresses; assay type: cell-based; conditions: 10 μM; mitochondrial (rotenone), hyperosmotic (sorbitol) or arsenate stress
Protocol: The stressor, arsenate, will react with the thiol groups of lipoamide. Therefore, to exclude the possibility that lipoamide is acting only by removing the stressor, so it was further tested whether lipoic acid can prevent stress granule formation triggered by other stresses than arsenate (an oxidative) stress: Mitochondrial electron transport chain inhibition (rotenone), heat stress (42° C.), hyperosmotic stress (sorbitol, a non-metabolisable sugar), glycolysis inhibition ([…] in the absence of glucose) or serum starvation.
Various cellular stresses were achieved by replacing 1 h 1 mM potassium arsenate treatment with other conditions: 100 μM rotenone (R8875, Sigma Aldrich) from a 1 M stock in DMSO for 2 h (mitochondrial stress). […] Sorbitol (S1876, Sigma Aldrich) from a 4 M stock in H2O for 1 h (osmotic stress). 42° C. in normal growth medium for 30 m (heat stress). […] Appropriate solvent controls were used.

[3] = test system: HeLa cells expressing FUS GFP; assay: HeLa cell compound dose responses (FUS GFP, arsenate stress); assay type: cell-based
[4] = in vivo; cited from earlier work
FUS GFP = biological target: T1, FUS GFP (Homo sapiens, UniProt P35637); assay: Salt (KCl) sensitivity of FUS GFP droplet formation in vitro; assay type: biochemical; conditions: 100 μM compound, 2.8 μM FUS GFP
T1 construct: His MBP (N, cleaved yes); made in house; host or cells: baculovirus/insect cell expression system
T1 sequence (P35637 1-526): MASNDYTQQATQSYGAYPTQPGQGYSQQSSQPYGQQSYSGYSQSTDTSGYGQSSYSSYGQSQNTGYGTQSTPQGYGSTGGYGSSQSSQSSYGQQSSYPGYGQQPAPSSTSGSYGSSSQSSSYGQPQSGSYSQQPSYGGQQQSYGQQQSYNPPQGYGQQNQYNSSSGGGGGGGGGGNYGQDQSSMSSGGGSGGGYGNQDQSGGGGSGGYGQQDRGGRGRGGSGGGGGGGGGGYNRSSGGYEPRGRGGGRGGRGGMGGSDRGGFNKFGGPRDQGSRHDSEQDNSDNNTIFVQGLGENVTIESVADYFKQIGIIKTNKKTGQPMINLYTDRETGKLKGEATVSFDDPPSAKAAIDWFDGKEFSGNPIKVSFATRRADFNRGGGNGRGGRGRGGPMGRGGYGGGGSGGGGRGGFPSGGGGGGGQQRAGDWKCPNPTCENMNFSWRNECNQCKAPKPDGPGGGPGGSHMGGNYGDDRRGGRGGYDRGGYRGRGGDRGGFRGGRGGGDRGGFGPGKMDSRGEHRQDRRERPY
Protocol: FIG. 6A) Droplets formed by 2.8 μM FUS GFP in vitro with different concentrations of KCl (which inhibits droplet formation) with 100 μM lipoamide, lipoic acid or equivalent DMSO solvent control (1%). Lipoamide and lipoic acid subtly promote droplet formation. FIG. 6B) Effect of lipoamide and lipoic acid on G156E FUS GFP droplet ‘aging’ while shaking, relative to an equivalent DMSO solvent control (0.3%). Both compounds delay fibre formation. FIG. 6C) Representative fluorescence recovery after photobleaching (FRAP) of FUS droplets and fibres formed during the aging shown in FIG. 6B). Aged droplets treated with lipoamide or lipoic acid retain fast FRAP indicating liquidity. FIG. 6D) Quantitation of fluorescence signal intensity illustrated in FIG. 6C). Error bars represent standard deviation.
It was determined if lipoic acid or lipoamide affected the conditions under which FUS would phase separate in vitro. […]
For in vitro solidification assays, FUS GFP in storage buffer was diluted in water to give 10 μM FUS, 50 mM Tris·HCl pH 7.4 and 1 mM DTT in a 20 μl volume in non-binding clear bottom 384 well plates (Greiner Bio-One, 781906). […] Fibre and droplet formation were analysed by widefield epifluorescence using a DeltaVision Elite microscope (GE Healthcare Life Sciences) with a Plan ApoN 60× NA 1.4 oil immersion objective (Olympus) and an sCMOS camera (PCO). […]

[5] = 1 h pre-treatment, 1 h arsenate stress

| EC50 reducing stress granule number, compared among compounds ([3]; 1 h 1 mM arsenate stress) | EC50 ([3]; Homo sapiens, HeLa FUS GFP, 1 h 1 mM arsenate stress, read-out: cellular EC50) | Compound | localisation of EWSR1, TIAL1, PABPC1, G3BP1 GFP to stress granules [1] | stress granule formation [2] | toxicity [4] | conditions (KCl concentration) under which FUS phase separates (FUS GFP) | nuclear/cytoplasm FUS partition, dose response [3, 5] | stress granule number, dose response [3, 5] |
| --- | --- | --- | --- | --- | --- | --- | --- | --- |
| comparable EC50 |  | O=C(O)CCCCC1CCSS1 (racemic) [lipoic acid, 5-(1,2-dithiolan-3-yl)pentanoic acid] | localised to stress granules in the absence of treatment, and not in the presence | reduced stress granule formation | non-toxic | slightly increasing the minimum KCl concentration at which phase separation would occur |  |  |
| comparable EC50 | ~10 µM | NC(=O)CCCCC1CCSS1 (racemic) [lipoamide, 5-(1,2-dithiolan-3-yl)pentanamide] | localised to stress granules in the absence of treatment, and not in the presence | reduced stress granule formation | non-toxic | slightly increasing the minimum KCl concentration at which phase separation would occur | increased nuclear/cytoplasm FUS partition | reducing the number of stress granules |
